Assay results: patent publication US11890324B2, “Compounds for use in inducing myocardial perfusion recovery” (Epoqe Pharma ApS, priority 2018, dated 2024)
Values joined by “and” are separate entries in the source; they are usually repeats but may differ in a detail not shown here. Equal values may be shown once. “Also recorded” adds a separate entry of the source.

Experiments:
[1] = target: T1, CGRP receptor (Homo sapiens, UniProt O60894+Q16602); details: literature (Sheykhzade 2018; Nilsson 2016); cited from earlier work
T1 construct: host or cells: naturally occurring cells, recombinant CGRP receptor expressing cell lines, isolated artery segments (none specified)

[2] = tested on: coronary (left anterior descending artery, LAD) artery segments; assay: Vasodilation of isolated precontracted artery segments (wire myograph), coronary artery; assay type: cell-based, rat
Description: (§1) Basilar, mesenteric and coronary arteries were isolated immediately and ring artery segments were stored in ice cold PSS buffer before being mounted on 40 μm stainless steel wires in a Multi Wire Myograph System organ bath (model 610M, Danish Myo Technology A/S, Denmark). Each segment was immersed in 37° C. PSS solution, continuously aerated with 5% CO2/95% O2 to maintain pH 7.4. […] One wire was connected to a micrometer screw enabling adjustments of the distance between the wires. The other wire was connected to a force displacement transducer attached to an analogue-digital converter unit (ADInstruments, Chalgrove, UK).
(§2) Measurements of vascular tone were recorded using the data acquisition hardware Power Lab unit (ADInstruments). To ensure optimal conditions for maximal force development, each artery segment was carefully stretched to 90% of the internal circumference that the vessel would have under the passive transmural pressure of 100 mm Hg. Following an equilibration period of approximately 20 min, each segment was exposed twice to KPSS to confirm smooth muscle cell viability and the reproducibility of depolarization-induced contractions.
After 15 min equilibration, a stable precontraction tone (50-80% of the KPSS-induced steady state contraction) was induced in arterial segments by PGF2α (3-10 μM). […]
Vasodilation is expressed as percentage of the remaining precontraction tone induced by PGF2α. […] Active tension was determined by subtracting the passive tension (resting tension in PSS) from the total tension (during KPSS or PGF2α challenge).
(§3) All pharmacological data were analysed using Prism 7.02 (GraphPad Software Inc., San Diego, CA) and given as mean±S.E.M. For all analyses, the data were unweighted and each y value (mean of replicates for each individual experiment) was considered an individual point.
(§4) Differences in pEC50 and Emax values were analysed with paired (animal) t-tests and considered significant as P<0.05.

[3] = tested on: peripheral (mesenteric) artery segments; assay: Vasodilation of isolated precontracted artery segments (wire myograph), mesenteric artery; assay type: cell-based, rat
Description: as §1, §2
(§5) After 15 min equilibration, a stable precontraction tone (50-80% of the KPSS-induced steady state contraction) was induced in arterial segments by PGF2α (3-10 μM).
(§6) Concentration-dependent vasodilatory responses of artery segments were normalized as percentage of precontraction remaining.
(§7) Vasodilation is expressed as percentage of the remaining precontraction tone induced by PGF2α. Vessel wall tension=Force/(vessel wall length), where vessel wall length=2×segment length. Active tension was determined by subtracting the passive tension (resting tension in PSS) from the total tension (during KPSS or PGF2α challenge).
as §3, §4

[4] = tested on: cerebral (basilar) artery segments; assay: Vasodilation of isolated precontracted artery segments (wire myograph), basilar artery; assay type: cell-based, rat
Description: as §1, §2, §5, §6, §7, §3, §4

[5] = tested on: coronary LAD artery segments; assay: CGRP-agonist sensibilization: repeated dose-response and artery culture, coronary LAD; assay type: cell-based, rat
Description: (§8) Artery segments were divided for comparison of the effect of Compound I and CGRP in fresh and cultured artery segments, respectively.

[6] = tested on: mesenteric artery segments; assay: CGRP-agonist sensibilization: repeated dose-response and artery culture, mesenteric artery; assay type: cell-based, rat; details: isolated mesenteric artery
Description: as §8

[7] = tested on: hypertension in experimental animals; details: cited from earlier work
[8] = tested on: rats with acute myocardial infarction (permanent LAD occlusion); assay: Rat model of acute myocardial infarction (permanent LAD occlusion), myocardial perfusion imaging by SPECT/CT
Description: Experimental myocardial infarction is induced by LAD ligation in rats. Size of the acute myocardial perfusion defect is determined by myocardial perfusion imaging using SPECT/CT. […] All surviving rats underwent follow-up myocardial perfusion imaging using SPECT/CT 21 days after the infarct to determine the final infarct size.
AMI surgery was conducted using the procedure for permanent LAD occlusion.
The rats were anaesthetized with 4% sevoflurane. Rats were intubated and ventilated (UNO micor-ventilator-O3, Netherlands) and maintained anaesthetized with sevuflorane 2.5% to 4%. Rats were placed on a heated surface during surgery. In the rat's tail vein a 24G intravenous catheter was placed (Vasofix® Safety, Braun, Denmark). Before incision the rats were pain treated subcutaneously with Buprenorphine 0.05 mg/kg. After surgery the rats were paintreated four times the first 24 hours and three times the next 24-72 hours.
After insuring sterile surgical conditions, an incision was made in the skin and a thoracotomy was performed. This was placed at either the third or fourth intercostal space depending on size. The pericardium was identified and opened. After inspection of the heart, the LAD was identified and ligated caudal of its origin with a 5-0 polypropylene suture. The myocardium was visually observed for ischemia. If there was no discoloration of the myocardium, another suture was made until ischemia was confirmed by discoloration of the myocardium. One minute after ligation, the rats were injected intravenously with 99-technetium sestamibi to determine the acute perfusion defect. After injection of sestamibi, suture type vicryl 4-0 was used to close the thoracotomy, muscle layer and skin.
Rats underwent single photon emission computer tomography (SPECT) on the day of the surgery and 21 days post-surgery to determine acute and final perfusion defect size. Imaging was performed on a preclinical SPECT/CT scanner (Mediso Nanoscan, Hungary). The rats were anesthetized with sevuflorane 4% for SPECT-scan to be obtained. On the day of the surgery, the rats were perioperatively injected with 99-technetium Sestamibi (median 106 mBq [99; 116]) as described above. On the 21-days follow-up the rats were anesthetized with sevoflurane 4%. In the rat's tail vein an 24G intravenous catheter was placed (Vasofix® Safety, Braun, Denmark). After the catheter was placed, the rats were injected with 99-tecnetium (median 122 [106; 129]).

[9] = all completers, 21 days after infarct, mean ± SEM
[10] = subgroup with acute perfusion defect < 15%, 21 days, mean ± SEM

T1 sequence (Q16602 23-461): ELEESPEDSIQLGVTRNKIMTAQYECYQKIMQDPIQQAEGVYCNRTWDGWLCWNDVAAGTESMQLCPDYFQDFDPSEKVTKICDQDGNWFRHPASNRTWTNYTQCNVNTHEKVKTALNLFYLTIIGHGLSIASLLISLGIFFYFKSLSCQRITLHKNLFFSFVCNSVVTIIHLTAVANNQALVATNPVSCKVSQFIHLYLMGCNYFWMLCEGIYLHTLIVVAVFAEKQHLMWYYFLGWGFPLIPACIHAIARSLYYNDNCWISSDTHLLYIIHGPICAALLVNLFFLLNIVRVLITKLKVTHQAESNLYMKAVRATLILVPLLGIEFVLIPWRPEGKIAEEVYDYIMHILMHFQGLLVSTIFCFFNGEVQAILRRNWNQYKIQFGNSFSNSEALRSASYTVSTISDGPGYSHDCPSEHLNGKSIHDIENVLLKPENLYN
T1 sequence (O60894 27-148): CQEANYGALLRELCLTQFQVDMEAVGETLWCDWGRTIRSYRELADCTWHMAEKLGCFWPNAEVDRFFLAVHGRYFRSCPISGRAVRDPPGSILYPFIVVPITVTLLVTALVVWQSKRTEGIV

N-alpha-[2-(2-{2-[(S)-4-Carboxy-4-(17-carboxyheptadecanoylamino)butyryl-amino]ethoxy}ethoxy)acetyl](Ser1]beta-human CGRP peptide [Compound II]
In vitro potency lower than that of CGRP [1]: approximately 10 times

N-alpha-[2-(2-{2-[(S)-4-Carboxy-4-(17-carboxyheptadecanoylamino)-butyrylamino]-ethoxy}ethoxy)acetyl](Ser1]alpha-human CGRP peptide [Compound I]
Vasodilation efficacy compared with CGRP (in words) ([2]; coronary artery): comparable efficacy; also recorded: not different
Potency ratio (EC50 CGRP: EC50 Compound 1) ([2]; coronary artery segments): ~1
Vasodilatory potency compared with CGRP (in words) ([2]; coronary artery segments): equipotent; also recorded: similar; also recorded: not different
Potency difference between CGRP and Compound I ([3]; mesenteric artery): 5-10 fold
Potency ratio (EC50 CGRP: EC50 Compound 1) ([3]; mesenteric artery): 0.1-0.2
Vasodilation efficacy compared with CGRP (in words) ([3]; mesenteric artery): comparable efficacy
Vasodilatory potency compared with CGRP (in words) ([3]; mesenteric artery): lower
Potency in peripheral compared with coronary artery (in words) ([3]; peripheral (mesenteric) versus coronary artery): not lower
Vasodilation efficacy compared with CGRP (in words) ([4]; basilar artery): comparable efficacy
Vasodilatory potency compared with CGRP (in words) ([4]; basilar artery): lower
Potency difference between CGRP and Compound I ([4]; cerebral artery): 5-10 fold
Potency ratio (EC50 CGRP: EC50 Compound 1) ([4]; cerebral artery): 0.1-0.2
Effect of repeated cumulative stimulation on potency ratio Compound I/CGRP (in words) [5]: does not change the potency ratio
Effect of artery culture on CGRP-agonist-induced vasodilation (in words) ([5]; culture 24 h at 37° C. in absence and presence of 10 nM Compound I): induce sensibilization
Effect of repeated cumulative stimulation on potency (in words) ([5]; second dose-response curve 90-120 minutes after the first): shift in potency towards significant sensitization
Potency ratio between Compound I and CGRP after repeated dose-response (in words) [6]: maintained
CGRP-agonist-induced CGRP sensibilization (in words) ([6]; repeated dose-response and culture): no CGRP-agonist-induced CGRP sensibilization
In vitro potency lower than that of CGRP [1]: approximately 10 times
Effect on hypertension (in words) [7]: reversing hypertension and complications of hypertension
Perfusion recovery, % [8, 9]: 55.1±6.6% and 55.1 ± 6.4%
Perfusion recovery, SRS [8, 9]: 6.5 ± 1 SRS
Animals surviving the surgery and the 3 weeks recovery period (survival rate) ([8]; rat, in vivo): 75%
Effect on survival rate (in words) ([8]; rat, in vivo): tendency (not statistically significant) towards an increased survival rate
Further rats that died during the 21-days follow-up period ([8]; rat, in vivo): 14%
Perfusion recovery in subgroup, % [8, 10]: 66.2 ± 9.0%
Perfusion recovery in subgroup, SRS [8, 10]: 3.8 ± 0.6 SRS
Effect on myocardial perfusion recovery (in words) ([8]; treatment for 3 successive days after experimental AMI, 3 weeks): large improvement of myocardial perfusion recovery; also recorded: significant improved recovery of perfusion defect
